Activity calls are given as the source filed them. The calls are words filed in the database; no cut-off is given here.
Experiments:
[1] = target: Beta-galactosidase (Escherichia coli K-12) (UniProt P00722); test: Inhibition of Escherichia coli beta galactosidase at 1 mM
[2] = target: T1, Tissue alpha-L-fucosidase (Bos taurus) (UniProt Q2KIM0); test: Inhibition of bovine kidney alpha L-fucosidase at 1 mM
T1 sequence (whole entry): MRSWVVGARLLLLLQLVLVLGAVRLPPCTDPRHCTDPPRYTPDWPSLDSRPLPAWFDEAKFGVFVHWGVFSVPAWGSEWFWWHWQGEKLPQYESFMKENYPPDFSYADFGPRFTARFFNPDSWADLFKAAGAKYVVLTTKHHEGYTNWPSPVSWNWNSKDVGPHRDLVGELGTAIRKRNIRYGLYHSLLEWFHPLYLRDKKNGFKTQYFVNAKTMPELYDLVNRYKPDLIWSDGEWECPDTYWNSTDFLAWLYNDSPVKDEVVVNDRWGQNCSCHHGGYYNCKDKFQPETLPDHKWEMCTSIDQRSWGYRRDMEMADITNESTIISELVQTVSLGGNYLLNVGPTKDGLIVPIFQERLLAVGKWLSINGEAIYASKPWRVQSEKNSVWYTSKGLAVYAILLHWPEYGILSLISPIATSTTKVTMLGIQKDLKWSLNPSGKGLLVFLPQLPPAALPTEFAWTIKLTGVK

Saccharomyces cerevisiae [3] = test: Inhibition of yeast maltase at 1 mM
Prunus dulcis [4] = test: Inhibition of almond beta glucosidase at 1 mM
Aspergillus niger [5] = test: Inhibition of Aspergillus niger amyloglucosidase at 1 mM
[6] = target: T2, Tissue alpha-L-fucosidase (Bos taurus, UniProt Q2KIM0); test: Inhibition of bovine kidney alpha L-fucosidase
T2 sequence (Q2KIM0 whole entry): T1 sequence (whole entry)

[7] = target: Beta-galactosidase (Escherichia coli K-12) (UniProt P00722); test: Inhibition of Escherichia coli beta galactosidase at 0.1 mM
[8] = target: T1, Tissue alpha-L-fucosidase (Bos taurus); test: Inhibition of bovine kidney alpha L-fucosidase at 0.1 mM
Saccharomyces cerevisiae [9] = test: Inhibition of yeast maltase at 0.1 mM
Prunus dulcis [10] = test: Inhibition of almond beta glucosidase at 0.1 mM
Aspergillus niger [11] = test: Inhibition of Aspergillus niger amyloglucosidase at 0.1 mM

Beta-galactosidase (Escherichia coli K-12), sequence (P00722 whole entry): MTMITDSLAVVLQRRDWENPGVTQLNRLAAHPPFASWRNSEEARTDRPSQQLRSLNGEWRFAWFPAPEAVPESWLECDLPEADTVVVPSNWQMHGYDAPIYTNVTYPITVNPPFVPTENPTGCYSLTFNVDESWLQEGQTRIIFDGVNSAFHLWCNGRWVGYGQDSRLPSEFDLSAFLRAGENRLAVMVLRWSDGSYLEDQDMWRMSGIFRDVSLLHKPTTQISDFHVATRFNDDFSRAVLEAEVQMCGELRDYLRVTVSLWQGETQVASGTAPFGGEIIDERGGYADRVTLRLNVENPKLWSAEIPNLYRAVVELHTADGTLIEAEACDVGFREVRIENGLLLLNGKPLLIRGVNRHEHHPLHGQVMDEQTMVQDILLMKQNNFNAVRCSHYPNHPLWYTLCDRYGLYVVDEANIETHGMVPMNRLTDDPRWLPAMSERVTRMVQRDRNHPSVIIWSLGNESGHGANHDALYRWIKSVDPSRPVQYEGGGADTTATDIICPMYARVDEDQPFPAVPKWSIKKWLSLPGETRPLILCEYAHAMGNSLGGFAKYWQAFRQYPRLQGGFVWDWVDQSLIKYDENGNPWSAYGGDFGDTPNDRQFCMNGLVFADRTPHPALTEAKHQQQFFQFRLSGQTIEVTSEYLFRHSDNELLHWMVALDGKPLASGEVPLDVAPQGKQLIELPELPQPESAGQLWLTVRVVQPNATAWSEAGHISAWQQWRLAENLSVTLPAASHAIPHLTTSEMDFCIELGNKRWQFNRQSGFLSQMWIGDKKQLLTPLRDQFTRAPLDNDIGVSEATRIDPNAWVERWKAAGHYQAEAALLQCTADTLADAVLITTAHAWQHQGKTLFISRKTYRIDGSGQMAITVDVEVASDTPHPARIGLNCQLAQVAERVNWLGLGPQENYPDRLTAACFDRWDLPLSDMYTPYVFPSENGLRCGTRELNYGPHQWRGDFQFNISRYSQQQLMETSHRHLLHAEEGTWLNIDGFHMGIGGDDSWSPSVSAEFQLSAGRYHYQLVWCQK

Row | inhibition [1] | inhibition [2] | inhibition (Saccharomyces cerevisiae [3]) | inhibition (Prunus dulcis [4]) | inhibition (Aspergillus niger [5]) | IC50 [6] [µM] | inhibition [7] | inhibition [8] | Ki [6] [µM] | inhibition (Saccharomyces cerevisiae [9]) | inhibition (Prunus dulcis [10]) | inhibition (Aspergillus niger [11]) | Compound
1 | inactive | 17% | inactive | 23% | inactive | – | – | – | – | – | – | – | C[C@H]1NN[C@@H](CO)[C@H](O)[C@@H]1O
2 | inactive | 77% | inactive | inactive | inactive | – | – | – | – | – | – | – | C[C@H]1[C@@H](O)[C@@H](O)[C@H](CNC(=O)[C@@H](N)CCCCN)NN1C(=O)OCc1ccccc1
3 | inactive | 53% | inactive | inactive | inactive | – | – | – | – | – | – | – | C[C@H]1NN[C@@H](CN)[C@H](O)[C@@H]1O
4 | inactive | 77% | inactive | inactive | inactive | 535 | – | – | – | – | – | – | C[C@@H]1NN[C@@H](CNC(=O)[C@@H](N)CCCCN)[C@H](O)[C@@H]1O
5 | inactive | 54% | inactive | inactive | inactive | – | – | – | – | – | – | – | C[C@@H]1[C@@H](O)[C@@H](O)[C@H](CN)NN1C(=O)OCc1ccccc1
6 | inactive | inactive | inactive | inactive | inactive | – | – | – | – | – | – | – | C[C@H]1NN[C@@H](CNC(=O)[C@@H](N)Cc2ccccc2)[C@H](O)[C@@H]1O
7 | 32% | 92% | inactive | inactive | inactive | 117 | – | – | – | – | – | – | C[C@H]1[C@@H](O)[C@@H](O)[C@H](CN)NN1C(=O)OCc1ccccc1
8 | inactive | 82% | inactive | inactive | inactive | 283 | – | – | – | – | – | – | C[C@@H]1NN[C@@H](CNC(=O)[C@@H](N)Cc2ccccc2)[C@H](O)[C@@H]1O
9 | inactive | 35% | inactive | inactive | inactive | – | – | – | – | – | – | – | C[C@H]1[C@@H](O)[C@@H](O)[C@H](CO)NN1C(=O)OCc1ccccc1
10 | – | – | – | – | – | 8.6 | inactive | 85% | 1 | inactive | inactive | 21% | C[C@@H]1NN[C@@H](CNC(=O)c2ccc(-c3ccccc3)cc2)[C@H](O)[C@@H]1O
11 | inactive | – | inactive | inactive | inactive | – | – | 5% | – | – | – | – | CCCCCCCCCCCC(=O)NC[C@@H]1NN(C(=O)OCc2ccccc2)[C@@H](C)[C@@H](O)[C@H]1O
12 | inactive | 44% | inactive | inactive | inactive | – | – | – | – | – | – | – | C[C@@H]1NN[C@@H](CN)[C@H](O)[C@@H]1O
13 | inactive | 16% | inactive | inactive | inactive | – | – | – | – | – | – | – | C[C@@H]1[C@@H](O)[C@@H](O)[C@H](CNC(=O)[C@@H](N)Cc2ccccc2)NN1C(=O)OCc1ccccc1
14 | inactive | 65% | inactive | inactive | inactive | – | – | – | – | – | – | – | C[C@H]1[C@@H](O)[C@@H](O)[C@H](CNC(=O)[C@@H](N)Cc2ccccc2)NN1C(=O)OCc1ccccc1
15 | inactive | 27% | inactive | inactive | inactive | – | – | – | – | – | – | – | C[C@@H]1[C@@H](O)[C@@H](O)[C@H](CO)NN1C(=O)OCc1ccccc1
16 | – | – | – | – | – | – | inactive | inactive | – | inactive | inactive | inactive | C[C@@H]1[C@@H](O)[C@@H](O)[C@H](CNC(=O)c2ccc(-c3ccccc3)cc2)NN1C(=O)OCc1ccccc1
17 | inactive | 40% | inactive | inactive | 24% | – | – | – | – | – | – | – | CCCCCCCCCCCC(=O)NC[C@@H]1NN[C@H](C)[C@@H](O)[C@H]1O
18 | inactive | 53% | inactive | inactive | inactive | – | – | – | – | – | – | – | C[C@H]1NN[C@@H](CNC(=O)c2ccc(-c3ccccc3)cc2)[C@H](O)[C@@H]1O
19 | inactive | 70% | 51% | inactive | inactive | – | – | – | – | – | – | – | CCCCCCCCCCCC(=O)NC[C@@H]1NN[C@@H](C)[C@@H](O)[C@H]1O
20 | inactive | 97% | inactive | inactive | inactive | 30 | – | – | 4.2 | – | – | – | C[C@@H]1NN[C@@H](CO)[C@H](O)[C@@H]1O

— ChEMBL document CHEMBL1177655, “Synthesis and inhibitory activities of novel C-3 substituted azafagomines: a new type of selective inhibitors of α-L-fucosidases” (Bioorg Med Chem, 2010)
